Earlier results in article PMC2692938 (Nuclear medicine and biology, 2009).

Tested on: αvβ3
Conditions: selective αvβ3 antagonist

- IC50 values: lower nanomolar range
Substance: c(RGDfV)
